Measurements taken from ChEMBL document CHEMBL5335856, “Structurally Diverse Alkaloids with Anti-Renal-Fibrosis Activity from the Centipede Scolopendra subspinipes mutilans” (J Nat Prod, 2024).
The source made the active and inactive calls. The rule behind the calls is not given here.

Legend:
[1] = target: Cysteine and glycine-rich protein 2 (Homo sapiens) (UniProt Q16527); experiment: Binding affinity to Csrp2 (unknown origin) assessed as fold change in protein upregulation at 200 uM preincubated for 2 hrs followed by pronase addition and measured after 30 mins by coomassie blue staining based SDS-PAGE gel analysis
[2] = target: Na(+)/H(+) exchange regulatory cofactor NHE-RF1 (Homo sapiens) (UniProt O14745); experiment: Binding affinity to Slc9a3r1 (unknown origin) assessed as fold change in protein upregulation at 200 uM preincubated for 2 hrs followed by pronase addition and measured after 30 mins by coomassie blue staining based SDS-PAGE gel analysis
NRK-52E [3] = experiment: Anti-renal-fibrosis activity in TGF-beta1 induced rat NRK-52E cells assessed as downregulation of collagen I expression at 40 uM; format: functional, cell-based
[4] = target: Serine/threonine-protein kinase TAO3 (Homo sapiens) (UniProt Q9H2K8); experiment: Binding affinity to Taok3 (unknown origin) at 200 uM preincubated for 2 hrs followed by pronase addition and measured after 30 mins by coomassie blue staining based SDS-PAGE gel analysis
[5] = target: Nonsense-mediated mRNA decay factor SMG7 (Homo sapiens) (UniProt Q92540); experiment: Binding affinity to Smg7 (unknown origin) at 200 uM preincubated for 2 hrs followed by pronase addition and measured after 30 mins by coomassie blue staining based SDS-PAGE gel analysis
Nonsense-mediated mRNA decay factor SMG7 (Homo sapiens), sequence (Q92540 whole entry): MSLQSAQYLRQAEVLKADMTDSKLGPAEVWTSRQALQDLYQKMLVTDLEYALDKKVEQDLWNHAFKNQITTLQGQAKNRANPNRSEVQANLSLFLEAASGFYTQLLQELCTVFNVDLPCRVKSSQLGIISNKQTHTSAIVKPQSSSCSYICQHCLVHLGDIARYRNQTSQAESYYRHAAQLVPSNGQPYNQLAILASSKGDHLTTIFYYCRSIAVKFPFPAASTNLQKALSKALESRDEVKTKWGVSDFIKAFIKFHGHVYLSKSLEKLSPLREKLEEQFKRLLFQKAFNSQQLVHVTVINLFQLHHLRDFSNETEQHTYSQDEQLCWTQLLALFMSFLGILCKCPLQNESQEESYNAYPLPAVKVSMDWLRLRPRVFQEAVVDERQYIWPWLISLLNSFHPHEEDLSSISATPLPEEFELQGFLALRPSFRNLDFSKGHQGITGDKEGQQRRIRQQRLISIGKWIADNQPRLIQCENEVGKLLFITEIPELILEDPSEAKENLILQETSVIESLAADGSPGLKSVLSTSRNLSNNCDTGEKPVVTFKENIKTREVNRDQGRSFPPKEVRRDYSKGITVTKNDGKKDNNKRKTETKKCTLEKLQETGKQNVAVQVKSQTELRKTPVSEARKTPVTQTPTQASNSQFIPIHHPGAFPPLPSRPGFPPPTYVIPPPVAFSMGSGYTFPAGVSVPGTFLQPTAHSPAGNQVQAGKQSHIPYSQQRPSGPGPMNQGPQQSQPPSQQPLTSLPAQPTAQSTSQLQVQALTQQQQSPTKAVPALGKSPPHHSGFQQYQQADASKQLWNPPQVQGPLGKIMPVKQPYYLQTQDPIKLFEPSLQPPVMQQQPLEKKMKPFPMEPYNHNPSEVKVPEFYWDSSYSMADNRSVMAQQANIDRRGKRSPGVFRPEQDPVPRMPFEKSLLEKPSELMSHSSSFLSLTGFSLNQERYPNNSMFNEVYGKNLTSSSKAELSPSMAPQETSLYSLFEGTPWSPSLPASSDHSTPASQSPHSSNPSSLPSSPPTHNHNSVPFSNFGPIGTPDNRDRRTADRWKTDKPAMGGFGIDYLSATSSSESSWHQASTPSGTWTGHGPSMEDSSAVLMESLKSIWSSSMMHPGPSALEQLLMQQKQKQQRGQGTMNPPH

[6] = target: Ubiquitin-like modifier-activating enzyme 5 (Homo sapiens) (UniProt Q9GZZ9); experiment: Binding affinity to Uba5 (unknown origin) at 200 uM preincubated for 2 hrs followed by pronase addition and measured after 30 mins by coomassie blue staining based SDS-PAGE gel analysis
[7] = target: Protein FAM91A1 (Homo sapiens) (UniProt Q658Y4); experiment: Binding affinity to Fam91a1 (unknown origin) assessed as fold change in protein upregulation at 200 uM preincubated for 2 hrs followed by pronase addition and measured after 30 mins by coomassie blue staining based SDS-PAGE gel analysis
NRK-52E [8] = experiment: Anti-renal-fibrosis activity in TGF-beta1 induced rat NRK-52E cells assessed as downregulation of fibronectin protein level at 20 uM by Western blot analysis; format: functional, cell-based
[9] = target: Serine/threonine-protein kinase DCLK1 (Homo sapiens) (UniProt O15075); experiment: Binding affinity to Dclk1 (unknown origin) assessed as fold change in protein upregulation at 200 uM preincubated for 2 hrs followed by pronase addition and measured after 30 mins by coomassie blue staining based SDS-PAGE gel analysis
Serine/threonine-protein kinase DCLK1 (Homo sapiens), sequence (O15075 whole entry): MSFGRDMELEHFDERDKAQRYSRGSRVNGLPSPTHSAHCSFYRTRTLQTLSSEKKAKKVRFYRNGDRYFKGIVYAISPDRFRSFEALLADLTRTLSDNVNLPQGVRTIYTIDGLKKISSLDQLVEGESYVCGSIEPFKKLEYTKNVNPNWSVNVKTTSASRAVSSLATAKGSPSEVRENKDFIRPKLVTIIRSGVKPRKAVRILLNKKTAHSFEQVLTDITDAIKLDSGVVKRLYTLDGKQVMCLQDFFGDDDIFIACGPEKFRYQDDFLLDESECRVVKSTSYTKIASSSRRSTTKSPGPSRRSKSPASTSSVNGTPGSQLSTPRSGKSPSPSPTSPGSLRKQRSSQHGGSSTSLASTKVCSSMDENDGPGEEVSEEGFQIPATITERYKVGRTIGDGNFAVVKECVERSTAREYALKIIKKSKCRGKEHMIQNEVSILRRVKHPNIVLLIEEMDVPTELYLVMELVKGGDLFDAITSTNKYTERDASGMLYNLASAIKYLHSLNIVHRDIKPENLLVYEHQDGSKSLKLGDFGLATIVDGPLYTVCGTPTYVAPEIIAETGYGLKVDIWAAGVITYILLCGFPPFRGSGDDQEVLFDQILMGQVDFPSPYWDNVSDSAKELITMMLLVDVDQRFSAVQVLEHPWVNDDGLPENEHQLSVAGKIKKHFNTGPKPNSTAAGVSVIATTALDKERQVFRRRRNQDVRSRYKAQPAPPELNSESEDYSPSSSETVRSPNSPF

[10] = target: FACT complex subunit SPT16 (Homo sapiens) (UniProt Q9Y5B9); experiment: Binding affinity to Supt16h (unknown origin) assessed as fold change in protein upregulation at 200 uM preincubated for 2 hrs followed by pronase addition and measured after 30 mins by coomassie blue staining based SDS-PAGE gel analysis
NRK-52E [11] = experiment: Anti-renal-fibrosis activity in TGF-beta1 induced rat NRK-52E cells assessed as downregulation of collagen I protein level by Western blot analysis; format: functional, cell-based; conditions: dose 5-40 µM
NRK-52E [12] = experiment: Anti-renal-fibrosis activity in TGF-beta1 induced Lamp2 knocked down rat NRK-52E cells assessed as downregulation of fibronectin expression at 40 uM; format: functional, cell-based
[13] = target: Poly(rC)-binding protein 3 (Homo sapiens) (UniProt P57721); experiment: Binding affinity to Pcbp3 (unknown origin) at 200 uM preincubated for 2 hrs followed by pronase addition and measured after 30 mins by coomassie blue staining based SDS-PAGE gel analysis
[14] = target: Far upstream element-binding protein 1 (Homo sapiens) (UniProt Q96AE4); experiment: Binding affinity to Fubp1 (unknown origin) assessed as fold change in protein upregulation at 200 uM preincubated for 2 hrs followed by pronase addition and measured after 30 mins by coomassie blue staining based SDS-PAGE gel analysis
Far upstream element-binding protein 1 (Homo sapiens), sequence (Q96AE4 whole entry): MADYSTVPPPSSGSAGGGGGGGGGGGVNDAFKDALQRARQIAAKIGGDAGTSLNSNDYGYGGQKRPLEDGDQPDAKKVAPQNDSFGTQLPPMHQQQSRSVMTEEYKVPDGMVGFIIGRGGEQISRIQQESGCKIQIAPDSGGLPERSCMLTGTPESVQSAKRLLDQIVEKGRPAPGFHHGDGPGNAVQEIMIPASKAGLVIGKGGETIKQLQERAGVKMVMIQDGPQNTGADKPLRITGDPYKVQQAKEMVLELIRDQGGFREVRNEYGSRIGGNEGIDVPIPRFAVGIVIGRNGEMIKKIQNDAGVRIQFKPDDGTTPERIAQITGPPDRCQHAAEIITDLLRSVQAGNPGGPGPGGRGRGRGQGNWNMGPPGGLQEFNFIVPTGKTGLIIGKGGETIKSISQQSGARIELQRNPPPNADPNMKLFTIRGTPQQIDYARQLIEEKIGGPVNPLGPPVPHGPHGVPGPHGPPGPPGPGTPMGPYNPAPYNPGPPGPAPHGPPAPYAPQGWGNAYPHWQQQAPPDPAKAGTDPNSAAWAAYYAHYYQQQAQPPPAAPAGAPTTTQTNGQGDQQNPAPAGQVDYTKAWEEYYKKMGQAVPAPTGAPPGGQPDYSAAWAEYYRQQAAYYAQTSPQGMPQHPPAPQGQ

NRK-52E [15] = experiment: Anti-renal-fibrosis activity in TGF-beta1 induced rat NRK-52E cells assessed as downregulation of fibronectin expression at 40 uM; format: functional, cell-based
[16] = target: Deoxycytidine kinase (Homo sapiens) (UniProt P27707); experiment: Binding affinity to Dck (unknown origin) at 200 uM preincubated for 2 hrs followed by pronase addition and measured after 30 mins by coomassie blue staining based SDS-PAGE gel analysis
Deoxycytidine kinase (Homo sapiens), sequence (P27707 whole entry, looked up): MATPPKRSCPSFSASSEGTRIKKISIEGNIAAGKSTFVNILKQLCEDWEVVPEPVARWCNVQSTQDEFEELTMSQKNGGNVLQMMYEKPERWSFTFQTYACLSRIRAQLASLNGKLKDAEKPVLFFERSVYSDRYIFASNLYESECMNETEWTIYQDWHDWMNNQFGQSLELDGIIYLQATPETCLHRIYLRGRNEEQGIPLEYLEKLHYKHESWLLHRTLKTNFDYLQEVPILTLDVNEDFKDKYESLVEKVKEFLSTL

Septin-5 (Homo sapiens) = Septin-5 (Homo sapiens) (UniProt Q99719); experiment: Binding affinity to Septin5 (unknown origin) assessed as fold change in protein upregulation at 200 uM preincubated for 2 hrs followed by pronase addition and measured after 30 mins by coomassie blue staining based SDS-PAGE gel analysis
[17] = target: Collagen alpha-1(I) chain (Homo sapiens) (UniProt P02452); experiment: Binding affinity to Col1a1 (unknown origin) at 200 uM preincubated for 2 hrs followed by pronase addition and measured after 30 mins by coomassie blue staining based SDS-PAGE gel analysis
Collagen alpha-1(I) chain (Homo sapiens), sequence (P02452 whole entry): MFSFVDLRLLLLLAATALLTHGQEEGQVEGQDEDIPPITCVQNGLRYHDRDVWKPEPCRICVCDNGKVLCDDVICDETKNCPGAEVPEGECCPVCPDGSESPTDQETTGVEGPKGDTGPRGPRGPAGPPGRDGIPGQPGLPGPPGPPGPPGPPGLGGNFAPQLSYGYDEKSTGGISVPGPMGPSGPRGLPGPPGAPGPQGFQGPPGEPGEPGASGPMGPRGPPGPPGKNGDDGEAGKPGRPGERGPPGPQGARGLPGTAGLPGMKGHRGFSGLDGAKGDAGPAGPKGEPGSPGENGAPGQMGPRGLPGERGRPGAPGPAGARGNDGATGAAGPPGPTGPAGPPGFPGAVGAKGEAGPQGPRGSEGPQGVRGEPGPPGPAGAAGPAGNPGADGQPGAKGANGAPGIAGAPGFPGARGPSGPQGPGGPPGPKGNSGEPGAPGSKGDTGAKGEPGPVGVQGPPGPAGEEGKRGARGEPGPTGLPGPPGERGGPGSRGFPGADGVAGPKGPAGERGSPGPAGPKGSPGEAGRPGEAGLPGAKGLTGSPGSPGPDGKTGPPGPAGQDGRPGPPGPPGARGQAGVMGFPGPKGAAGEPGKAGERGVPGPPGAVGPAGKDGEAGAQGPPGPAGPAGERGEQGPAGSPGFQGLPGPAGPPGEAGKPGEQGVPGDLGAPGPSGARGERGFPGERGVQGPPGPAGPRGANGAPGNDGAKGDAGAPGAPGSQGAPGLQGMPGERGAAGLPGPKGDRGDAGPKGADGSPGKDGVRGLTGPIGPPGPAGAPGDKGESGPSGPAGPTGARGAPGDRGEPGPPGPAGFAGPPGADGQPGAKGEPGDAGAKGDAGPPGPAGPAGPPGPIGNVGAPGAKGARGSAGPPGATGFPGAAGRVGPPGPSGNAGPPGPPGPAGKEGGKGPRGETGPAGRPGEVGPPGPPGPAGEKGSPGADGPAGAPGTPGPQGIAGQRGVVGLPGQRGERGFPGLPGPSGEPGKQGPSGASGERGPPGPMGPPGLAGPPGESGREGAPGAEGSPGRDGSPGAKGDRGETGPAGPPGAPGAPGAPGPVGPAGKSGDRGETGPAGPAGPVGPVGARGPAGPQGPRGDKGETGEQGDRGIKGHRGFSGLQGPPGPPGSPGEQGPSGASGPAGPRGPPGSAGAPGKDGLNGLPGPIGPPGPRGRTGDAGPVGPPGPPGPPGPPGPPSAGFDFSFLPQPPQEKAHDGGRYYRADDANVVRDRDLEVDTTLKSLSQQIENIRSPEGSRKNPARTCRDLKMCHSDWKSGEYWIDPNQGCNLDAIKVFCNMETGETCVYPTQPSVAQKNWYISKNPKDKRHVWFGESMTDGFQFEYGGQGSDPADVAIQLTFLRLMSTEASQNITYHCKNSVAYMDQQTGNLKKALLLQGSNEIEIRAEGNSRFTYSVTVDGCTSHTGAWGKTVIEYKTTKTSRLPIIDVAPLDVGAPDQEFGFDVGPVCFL

[18] = target: Protein YIF1B (Homo sapiens) (UniProt Q5BJH7); experiment: Binding affinity to Yif1b (unknown origin) assessed as fold change in protein upregulation at 200 uM preincubated for 2 hrs followed by pronase addition and measured after 30 mins by coomassie blue staining based SDS-PAGE gel analysis
Protein YIF1B (Homo sapiens), sequence (Q5BJH7 whole entry): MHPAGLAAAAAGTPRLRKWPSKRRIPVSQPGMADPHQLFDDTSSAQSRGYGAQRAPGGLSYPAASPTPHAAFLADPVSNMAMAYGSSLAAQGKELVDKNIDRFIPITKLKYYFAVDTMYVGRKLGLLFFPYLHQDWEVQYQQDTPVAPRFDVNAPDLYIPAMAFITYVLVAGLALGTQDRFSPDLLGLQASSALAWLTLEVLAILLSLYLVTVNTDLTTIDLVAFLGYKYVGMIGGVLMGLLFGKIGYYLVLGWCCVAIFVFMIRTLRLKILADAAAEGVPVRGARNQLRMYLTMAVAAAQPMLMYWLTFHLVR

[19] = target: 2-oxoisovalerate dehydrogenase subunit beta, mitochondrial (Homo sapiens) (UniProt P21953); experiment: Binding affinity to BCKDHB (unknown origin) at 200 uM preincubated for 2 hrs followed by pronase addition and measured after 30 mins by coomassie blue staining based SDS-PAGE gel analysis
[20] = target: Chromobox protein homolog 5 (Homo sapiens) (UniProt P45973); experiment: Binding affinity to Cbx5 (unknown origin) assessed as fold change in protein upregulation at 200 uM preincubated for 2 hrs followed by pronase addition and measured after 30 mins by coomassie blue staining based SDS-PAGE gel analysis
NRK-52E [21] = experiment: Anti-renal-fibrosis activity in TGF-beta1 induced rat NRK-52E cells assessed as downregulation of fibronectin protein level by Western blot analysis; format: functional, cell-based; conditions: dose 5-40 µM
[22] = target: V-type proton ATPase subunit C 1 (Homo sapiens) (UniProt P21283); experiment: Binding affinity to Atp6v1c1 (unknown origin) assessed as fold change in protein upregulation at 200 uM preincubated for 2 hrs followed by pronase addition and measured after 30 mins by coomassie blue staining based SDS-PAGE gel analysis
V-type proton ATPase subunit C 1 (Homo sapiens), sequence (P21283 whole entry): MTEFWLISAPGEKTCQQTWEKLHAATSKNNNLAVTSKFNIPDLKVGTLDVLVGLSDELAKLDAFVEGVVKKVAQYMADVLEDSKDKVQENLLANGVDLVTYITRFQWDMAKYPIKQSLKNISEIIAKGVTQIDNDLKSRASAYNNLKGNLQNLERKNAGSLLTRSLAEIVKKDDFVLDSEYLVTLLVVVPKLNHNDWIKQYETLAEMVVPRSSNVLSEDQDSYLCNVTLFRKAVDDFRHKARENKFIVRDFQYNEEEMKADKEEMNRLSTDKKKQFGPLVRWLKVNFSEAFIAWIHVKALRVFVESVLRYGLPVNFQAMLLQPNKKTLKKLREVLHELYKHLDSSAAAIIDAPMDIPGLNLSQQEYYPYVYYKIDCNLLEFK

[23] = target: Kinesin-like protein KIF21A (Homo sapiens) (UniProt Q7Z4S6); experiment: Binding affinity to Kif21a (unknown origin) at 200 uM preincubated for 2 hrs followed by pronase addition and measured after 30 mins by coomassie blue staining based SDS-PAGE gel analysis
[24] = target: Heat shock 70 kDa protein 4L (Homo sapiens) (UniProt O95757); experiment: Binding affinity to Hspa4l (unknown origin) assessed as fold change in protein upregulation at 200 uM preincubated for 2 hrs followed by pronase addition and measured after 30 mins by coomassie blue staining based SDS-PAGE gel analysis
NRK-52E [25] = experiment: Anti-renal-fibrosis activity in TGF-beta1 induced rat NRK-52E cells assessed as downregulation of alpha-SMA expression at 40 uM; format: functional, cell-based
[26] = target: Armadillo repeat-containing protein 10 (Homo sapiens) (UniProt Q8N2F6); experiment: Binding affinity to Armc10 (unknown origin) at 200 uM preincubated for 2 hrs followed by pronase addition and measured after 30 mins by coomassie blue staining based SDS-PAGE gel analysis

COc1c(O)nc2c(O)cccc2c1OC
fold change (FC) [1]: 1.29
fold change (FC) [2]: 3.04
Activity (NRK-52E [3]): Active
Activity [4]: Active
Activity [5]: Active
Activity [6]: Active
fold change (FC) [7]: 1.36
Activity (NRK-52E [8]): Active
fold change (FC) [9]: 2.01
fold change (FC) [10]: 1.23
Activity (NRK-52E [11]): Dose-Dependent Effect
Activity (NRK-52E [12]): inactive
Activity [13]: Active
fold change (FC) [14]: 1.29
Activity (NRK-52E [15]): Active
Activity [16]: Active
fold change (FC) (Septin-5 (Homo sapiens)): 1.48
Activity [17]: Active
fold change (FC) [18]: 1.76
Activity [19]: Active
fold change (FC) [20]: 1.25
Activity (NRK-52E [21]): Dose-Dependent Effect
fold change (FC) [22]: 1.21
Activity [23]: Active
fold change (FC) [24]: 1.28
Activity (NRK-52E [25]): Active
Activity [26]: Active
